We go through eight molecules from patent EP4745135A1 (Gluetacs Therapeutics (Shanghai) Co., Ltd., priority 2023, dated 2025).

One assay deals with T1, CK1α (Homo sapiens, UniProt P48729+Q96SW2).
T1 construct: effects of the compounds of the present disclosure on the expression of target proteins in cells; endogenous in cells; host or cells: human PBMCs (Milecell Biotechnologies)
The assay can be described thus: Western blot, degradation of substrate protein in hPBMCs. The settings on record: Western blot, 24 hours of compound treatment, compounds tested at 50 nM and 500 nM (concentration for the table not stated). In kind it is cell-based. (Immunoblotting shows a protein as a band on a membrane.)

For the next assay, the target named is T2, IKZF1 (Homo sapiens, UniProt Q13422+Q96SW2).
T2 construct: effects of the compounds of the present disclosure on the expression of target proteins in cells; endogenous in cells; host or cells: human PBMCs (Milecell Biotechnologies)
T2 sequence (Q13422 whole entry): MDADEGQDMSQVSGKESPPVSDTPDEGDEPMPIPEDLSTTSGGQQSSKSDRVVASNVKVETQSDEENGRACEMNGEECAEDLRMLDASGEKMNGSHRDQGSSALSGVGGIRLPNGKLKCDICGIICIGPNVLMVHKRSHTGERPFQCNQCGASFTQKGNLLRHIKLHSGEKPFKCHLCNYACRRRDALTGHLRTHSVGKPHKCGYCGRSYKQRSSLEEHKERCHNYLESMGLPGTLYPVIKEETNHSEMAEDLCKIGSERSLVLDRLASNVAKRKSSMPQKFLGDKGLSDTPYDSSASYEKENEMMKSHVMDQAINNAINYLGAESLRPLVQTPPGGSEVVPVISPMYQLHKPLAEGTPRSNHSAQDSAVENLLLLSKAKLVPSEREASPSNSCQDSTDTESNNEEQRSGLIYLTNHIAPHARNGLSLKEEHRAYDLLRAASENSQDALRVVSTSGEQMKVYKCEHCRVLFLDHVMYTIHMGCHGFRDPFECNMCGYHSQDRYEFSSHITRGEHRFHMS
T2 sequence (Q96SW2 whole entry): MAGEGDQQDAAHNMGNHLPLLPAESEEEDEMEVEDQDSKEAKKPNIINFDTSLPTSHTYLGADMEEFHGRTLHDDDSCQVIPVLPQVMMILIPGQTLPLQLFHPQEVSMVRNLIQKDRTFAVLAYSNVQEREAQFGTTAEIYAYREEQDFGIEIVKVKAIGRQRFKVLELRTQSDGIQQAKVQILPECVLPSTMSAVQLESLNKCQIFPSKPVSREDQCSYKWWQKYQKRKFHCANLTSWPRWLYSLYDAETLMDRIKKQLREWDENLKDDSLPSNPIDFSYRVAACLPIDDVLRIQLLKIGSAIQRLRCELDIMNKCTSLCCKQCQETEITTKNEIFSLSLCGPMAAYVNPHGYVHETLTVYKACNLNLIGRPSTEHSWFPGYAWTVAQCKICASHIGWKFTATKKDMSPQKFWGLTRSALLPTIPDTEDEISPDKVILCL
T2 sequence (Q16531 whole entry partner): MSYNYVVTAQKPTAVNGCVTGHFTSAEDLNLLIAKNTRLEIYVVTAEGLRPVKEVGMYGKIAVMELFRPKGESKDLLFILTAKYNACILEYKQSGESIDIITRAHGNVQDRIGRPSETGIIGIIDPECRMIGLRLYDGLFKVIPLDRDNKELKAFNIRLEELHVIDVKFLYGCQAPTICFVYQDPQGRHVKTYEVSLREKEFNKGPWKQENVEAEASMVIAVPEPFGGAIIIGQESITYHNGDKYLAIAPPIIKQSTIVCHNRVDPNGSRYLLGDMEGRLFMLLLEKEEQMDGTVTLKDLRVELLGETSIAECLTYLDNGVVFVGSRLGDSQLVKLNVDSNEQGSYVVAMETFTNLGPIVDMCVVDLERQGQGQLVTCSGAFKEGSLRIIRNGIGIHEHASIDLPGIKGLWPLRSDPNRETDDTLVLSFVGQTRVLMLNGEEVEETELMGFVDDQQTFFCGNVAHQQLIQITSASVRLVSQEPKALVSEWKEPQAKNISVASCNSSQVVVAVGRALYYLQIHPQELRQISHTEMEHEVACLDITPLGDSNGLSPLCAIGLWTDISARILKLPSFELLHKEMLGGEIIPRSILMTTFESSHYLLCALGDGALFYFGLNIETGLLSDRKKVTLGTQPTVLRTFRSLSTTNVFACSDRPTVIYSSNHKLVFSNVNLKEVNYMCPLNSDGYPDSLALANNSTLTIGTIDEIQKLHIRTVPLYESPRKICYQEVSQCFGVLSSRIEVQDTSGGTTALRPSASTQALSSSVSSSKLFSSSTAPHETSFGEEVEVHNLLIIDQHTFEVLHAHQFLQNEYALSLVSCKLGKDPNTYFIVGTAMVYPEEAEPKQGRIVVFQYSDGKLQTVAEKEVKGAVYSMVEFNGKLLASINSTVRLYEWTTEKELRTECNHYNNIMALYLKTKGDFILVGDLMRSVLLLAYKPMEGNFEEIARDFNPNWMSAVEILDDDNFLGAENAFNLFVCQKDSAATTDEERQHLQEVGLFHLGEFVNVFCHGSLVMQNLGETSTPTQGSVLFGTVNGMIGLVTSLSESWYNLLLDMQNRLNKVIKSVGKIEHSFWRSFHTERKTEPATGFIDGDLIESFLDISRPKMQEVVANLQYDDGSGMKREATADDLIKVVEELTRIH
The description is as above. In kind it is cell-based. The conditions noted are these: Western blot, 24 hours of compound treatment, compounds tested at 50 nM and 500 nM (concentration for the table not stated).

In the next assay the target is T3, IKZF2 (Homo sapiens, UniProt Q96SW2+Q9UKS7).
T3 construct: effects of the compounds of the present disclosure on the expression of target proteins in cells; endogenous in cells; host or cells: human PBMCs (Milecell Biotechnologies)
T3 sequence (Q9UKS7 whole entry): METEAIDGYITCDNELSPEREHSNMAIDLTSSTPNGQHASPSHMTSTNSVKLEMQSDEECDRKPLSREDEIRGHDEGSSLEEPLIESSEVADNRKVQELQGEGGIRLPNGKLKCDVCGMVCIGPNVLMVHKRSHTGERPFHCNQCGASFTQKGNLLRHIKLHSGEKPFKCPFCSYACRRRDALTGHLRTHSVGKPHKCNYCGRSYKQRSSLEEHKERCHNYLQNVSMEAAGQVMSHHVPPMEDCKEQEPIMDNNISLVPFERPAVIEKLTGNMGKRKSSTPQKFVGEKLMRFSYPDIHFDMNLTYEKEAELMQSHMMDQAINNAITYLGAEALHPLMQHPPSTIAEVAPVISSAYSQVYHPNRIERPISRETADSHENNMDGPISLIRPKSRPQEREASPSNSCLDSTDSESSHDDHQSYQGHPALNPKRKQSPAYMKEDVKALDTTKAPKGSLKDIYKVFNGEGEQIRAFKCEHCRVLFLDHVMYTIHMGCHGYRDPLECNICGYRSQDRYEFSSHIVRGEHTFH
T3 sequence (Q96SW2 whole entry): as the sequence (Q96SW2 whole entry) above
T3 sequence (Q16531 whole entry partner): as the sequence (Q16531 whole entry partner) above
Described as above. In kind it is cell-based. The conditions noted are these: Western blot, 24 hours of compound treatment, compounds tested at 50 nM and 500 nM (concentration for the table not stated).

The next assay deals with T4, IKZF3 (Homo sapiens, UniProt Q96SW2+Q9UKT9).
T4 construct: effects of the compounds of the present disclosure on the expression of target proteins in cells; endogenous in cells; host or cells: human PBMCs (Milecell Biotechnologies)
T4 sequence (Q9UKT9 whole entry): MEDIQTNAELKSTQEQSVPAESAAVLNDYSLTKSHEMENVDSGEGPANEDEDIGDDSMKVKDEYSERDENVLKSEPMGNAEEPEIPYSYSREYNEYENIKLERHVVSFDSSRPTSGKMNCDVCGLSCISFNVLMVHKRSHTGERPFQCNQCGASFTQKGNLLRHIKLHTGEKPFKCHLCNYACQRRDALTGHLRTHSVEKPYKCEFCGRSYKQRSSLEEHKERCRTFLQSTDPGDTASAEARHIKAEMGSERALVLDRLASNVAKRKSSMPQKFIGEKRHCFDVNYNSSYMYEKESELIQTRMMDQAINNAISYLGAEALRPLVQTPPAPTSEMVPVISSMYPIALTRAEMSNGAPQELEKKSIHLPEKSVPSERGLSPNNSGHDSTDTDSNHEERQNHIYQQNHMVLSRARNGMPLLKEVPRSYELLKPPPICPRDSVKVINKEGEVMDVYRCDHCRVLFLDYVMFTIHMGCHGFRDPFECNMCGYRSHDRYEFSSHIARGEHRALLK
T4 sequence (Q96SW2 whole entry): as the sequence (Q96SW2 whole entry) above
T4 sequence (Q16531 whole entry partner): as the sequence (Q16531 whole entry partner) above
Described as above. The conditions noted are these: Western blot, 24 hours of compound treatment, compounds tested at 50 nM and 500 nM (concentration for the table not stated). In kind it is cell-based.

The target of a further assay is T5, WEE1 (Homo sapiens, UniProt P30291+Q96SW2).
T5 construct: effects of the compounds of the present disclosure on the expression of target proteins in cells; endogenous in cells; host or cells: human PBMCs (Milecell Biotechnologies)
T5 sequence (P30291 whole entry): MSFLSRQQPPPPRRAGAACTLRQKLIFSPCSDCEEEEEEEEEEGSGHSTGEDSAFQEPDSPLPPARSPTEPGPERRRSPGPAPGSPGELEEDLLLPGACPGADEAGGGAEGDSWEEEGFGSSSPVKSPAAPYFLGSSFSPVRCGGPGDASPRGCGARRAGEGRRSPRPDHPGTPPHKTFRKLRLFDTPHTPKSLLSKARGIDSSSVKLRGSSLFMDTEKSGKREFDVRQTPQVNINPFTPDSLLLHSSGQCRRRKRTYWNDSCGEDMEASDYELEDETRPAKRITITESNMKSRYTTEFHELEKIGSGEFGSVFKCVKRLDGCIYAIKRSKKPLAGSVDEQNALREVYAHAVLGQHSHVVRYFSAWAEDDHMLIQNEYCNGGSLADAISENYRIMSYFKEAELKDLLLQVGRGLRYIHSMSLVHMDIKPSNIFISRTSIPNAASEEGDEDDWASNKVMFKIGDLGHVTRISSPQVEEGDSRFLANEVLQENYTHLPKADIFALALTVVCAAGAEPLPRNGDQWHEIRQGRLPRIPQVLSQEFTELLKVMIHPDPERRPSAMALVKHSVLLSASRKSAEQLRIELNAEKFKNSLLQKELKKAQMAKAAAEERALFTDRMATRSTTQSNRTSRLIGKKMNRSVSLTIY
T5 sequence (Q96SW2 whole entry): as the sequence (Q96SW2 whole entry) above
T5 sequence (Q16531 whole entry partner): as the sequence (Q16531 whole entry partner) above
The description is as above. In kind it is cell-based. The settings on record: Western blot, 24 hours of compound treatment, compounds tested at 50 nM and 500 nM (concentration for the table not stated).

The test system of the next assay is GSPT1. Described as above. In kind it is cell-based, Human. The conditions noted are these: Western blot, 24 hours of compound treatment, compounds tested at 50 nM and 500 nM (concentration for the table not stated).
Assay [1] addresses T6, human Cereblon WT GST-tagged protein (Homo sapiens, UniProt Q96SW2).
T6 construct: purchased CISBIO 64BDCRBNPEH
The assay is described as follows: CRBN-binding affinity, HTRF (CEREBLON BINDING kit). The conditions noted are these: for inhibition at 0.5 µM: read-out: Inhibition Rate at 0.5 µM (%); for inhibition at 2 µM: read-out: Inhibition Rate at 2 µM (%). Background: TR-FRET usually uses a lanthanide donor and a delayed reading to cut background.

T1 sequence (P48729 whole entry): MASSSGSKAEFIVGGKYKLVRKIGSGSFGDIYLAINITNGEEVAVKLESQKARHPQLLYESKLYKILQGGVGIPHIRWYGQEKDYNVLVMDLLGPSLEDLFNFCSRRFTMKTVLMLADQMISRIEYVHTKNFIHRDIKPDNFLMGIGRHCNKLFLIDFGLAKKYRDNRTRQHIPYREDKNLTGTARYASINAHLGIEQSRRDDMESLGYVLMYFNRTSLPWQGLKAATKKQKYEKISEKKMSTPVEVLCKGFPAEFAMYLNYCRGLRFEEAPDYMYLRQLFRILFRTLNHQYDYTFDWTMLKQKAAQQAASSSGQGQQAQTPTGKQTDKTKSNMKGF
T1 sequence (Q96SW2 whole entry): as the sequence (Q96SW2 whole entry) above
T1 sequence (Q16531 whole entry partner): as the sequence (Q16531 whole entry partner) above
T6 sequence (Q96SW2 whole entry): as the sequence (Q96SW2 whole entry) above

One may read the inhibition as the relative decrease from the control value, in per cent. Consider `O=C1CCC(N2Cc3cc(CN4CCN(C(c5ccccn5)c5ccccn5)CC4)ccc3C2=S)C(=O)N1` (stereo not shown) [GT-07734, 3-(5-((4-(di(pyridin-2-yl)methyl)piperazin-1-yl)methyl)-1-thioxoisoindolin-2-yl)piperidine-2,6-dione], for which the “CK1α substrate protein remaining %” value at CK1α is given as “B (80%< substrate protein remaining %≤ 100%)”. For the same molecule, the “IKZF 1 substrate protein remaining %” value at IKZF1 is on record as “B (80%< substrate protein remaining %≤ 100%)”. Further, the “IKZF2 substrate protein remaining %” value on IKZF2 is listed as “B (80%< substrate protein remaining %≤ 100%)”. At IKZF3, the “IKZF3 substrate protein remaining %” value was “A (0% ≤ substrate protein remaining % ≤ 80%)”. The “Wee1 substrate protein remaining %” value on WEE1 was “A (0% ≤ substrate protein remaining % ≤ 80%)”. In the assay with GSPT1, the “GSPT1 substrate protein remaining %” value was “A (0% ≤ substrate protein remaining % ≤ 80%)”. In assay [1], the inhibition at 0.5 µM fell in the range of 60 to 80% and the inhibition at 2 µM was in the range of 80 to 100%.

For `O=C1CCC(N2Cc3cc(CN4CCN(C(c5cccnc5)c5cccnc5)CC4)ccc3C2=S)C(=O)N1` (stereo not shown) [GT-07735, 3-(5-((4-(di(pyridin-3-yl)methyl)piperazin-1-yl)methyl)-1-thioxoisoindolin-2-yl)piperidine-2,6-dione], the “CK1α substrate protein remaining %” value on CK1α is “B (80%< substrate protein remaining %≤ 100%)”. In addition, at IKZF1, the “IKZF 1 substrate protein remaining %” value is reported as “B (80%< substrate protein remaining %≤ 100%)”. In addition, the “IKZF2 substrate protein remaining %” value at IKZF2 is listed as “B (80%< substrate protein remaining %≤ 100%)”. Moreover, the “IKZF3 substrate protein remaining %” value on IKZF3 is given as “A (0% ≤ substrate protein remaining % ≤ 80%)”. Further, at WEE1, the “Wee1 substrate protein remaining %” value is “A (0% ≤ substrate protein remaining % ≤ 80%)”. For the same molecule, the “GSPT1 substrate protein remaining %” value with GSPT1 is on record as “A (0% ≤ substrate protein remaining % ≤ 80%)”. In assay [1], the inhibition at 0.5 µM lay in the range of 53 to 60% and the inhibition at 2 µM lay within 80 to 100%.

Take `O=C1CCC(N2Cc3cc(CN4CCN(C(c5ccc(Cl)cc5)c5ccc(Cl)cc5)CC4)ccc3C2=S)C(=O)N1` (stereo not shown) [GT-07737, 3-(5-((4-(bis(4-chlorophenyl)methyl)piperazin-1-yl)methyl)-1-thioxoisoindolin-2-yl)piperidine-2,6-dione]: at CK1α, the “CK1α substrate protein remaining %” value is “B (80%< substrate protein remaining %≤ 100%)”. Further, the “IKZF 1 substrate protein remaining %” value on IKZF1 was “A (0% ≤ substrate protein remaining % ≤ 80%)”. For the same molecule, the “IKZF2 substrate protein remaining %” value on IKZF2 is on record as “A (0% ≤ substrate protein remaining % ≤ 80%)”. In addition, the “IKZF3 substrate protein remaining %” value at IKZF3 is on record as “A (0% ≤ substrate protein remaining % ≤ 80%)”. Besides, the “Wee1 substrate protein remaining %” value on WEE1 was “B (80%< substrate protein remaining %≤ 100%)”. Moreover, the “GSPT1 substrate protein remaining %” value in the assay on GSPT1 is reported as “A (0% ≤ substrate protein remaining % ≤ 80%)”. Also, in assay [1], the inhibition at 0.5 µM lay in the range of 30 to 40% and the inhibition at 2 µM was 53 to 60%.

For the molecule `O=C1CCC(N2Cc3cc(CN4C5CC4CN(C(c4ccccc4)c4ccccc4)C5)ccc3C2=S)C(=O)N1` (stereo not shown) [GT-07738, 3-(5-((3-benzhydryl-3,6-diazabicyclo[3.1.1]heptan-6-yl)methyl)-1-thioxoisoindolin-2-yl)piperidine-2,6-dione], the “CK1α substrate protein remaining %” value on CK1α is given as “B (80%< substrate protein remaining %≤ 100%)”. In addition, at IKZF1, the “IKZF 1 substrate protein remaining %” value was “A (0% ≤ substrate protein remaining % ≤ 80%)”. Besides, the “IKZF2 substrate protein remaining %” value on IKZF2 is recorded as “A (0% ≤ substrate protein remaining % ≤ 80%)”. Moreover, the “IKZF3 substrate protein remaining %” value at IKZF3 is given as “B (80%< substrate protein remaining %≤ 100%)”. In addition, the “Wee1 substrate protein remaining %” value on WEE1 is given as “B (80%< substrate protein remaining %≤ 100%)”. In the assay on GSPT1, the “GSPT1 substrate protein remaining %” value was “A (0% ≤ substrate protein remaining % ≤ 80%)”. Moreover, in assay [1], the inhibition at 0.5 µM was 53 to 60% and the inhibition at 2 µM is 80 to 100%.

Take `O=C1CCC(N2Cc3cc(CN4C[C@@H]5C[C@H]4CN5C(c4ccccc4)c4ccccc4)ccc3C2=S)C(=O)N1` (stereo partly drawn) [GT-07739, 3-(5-(((1S,4S)-5-benzhydryl-2,5-diazabicyclo[2.2.1]heptan-2-yl)methyl)-1-thioxoisoindolin-2-yl)piperidine-2,6-dione]: at CK1α, the “CK1α substrate protein remaining %” value is reported as “B (80%< substrate protein remaining %≤ 100%)”. For the same molecule, at IKZF1, the “IKZF 1 substrate protein remaining %” value was “A (0% ≤ substrate protein remaining % ≤ 80%)”. Also, the “IKZF2 substrate protein remaining %” value on IKZF2 is reported as “A (0% ≤ substrate protein remaining % ≤ 80%)”. Further, the “IKZF3 substrate protein remaining %” value at IKZF3 is “B (80%< substrate protein remaining %≤ 100%)”. For the same molecule, the “Wee1 substrate protein remaining %” value at WEE1 is on record as “B (80%< substrate protein remaining %≤ 100%)”. For the same molecule, in the assay with GSPT1, the “GSPT1 substrate protein remaining %” value is listed as “A (0% ≤ substrate protein remaining % ≤ 80%)”. For the same molecule, in assay [1], the inhibition at 0.5 µM was in the range of 60 to 80% and the inhibition at 2 µM was in the range of 80 to 100%.

For the molecule `O=C1CCC(N2Cc3cc(CN4C[C@H]5C[C@@H]4CN5C(c4ccccc4)c4ccccc4)ccc3C2=S)C(=O)N1` (stereo partly drawn) [GT-07740, 3-(5-(((1R,4R)-5-benzhydryl-2,5-diazabicyclo[2.2.1]heptan-2-yl)methyl)-1-thioxoisoindolin-2-yl)piperidine-2,6-dione], the “CK1α substrate protein remaining %” value on CK1α is reported as “B (80%< substrate protein remaining %≤ 100%)”. The “IKZF 1 substrate protein remaining %” value at IKZF1 is reported as “A (0% ≤ substrate protein remaining % ≤ 80%)”. On IKZF2, the “IKZF2 substrate protein remaining %” value is recorded as “A (0% ≤ substrate protein remaining % ≤ 80%)”. Moreover, at IKZF3, the “IKZF3 substrate protein remaining %” value was “B (80%< substrate protein remaining %≤ 100%)”. Besides, the “Wee1 substrate protein remaining %” value on WEE1 was “B (80%< substrate protein remaining %≤ 100%)”. For the same molecule, the “GSPT1 substrate protein remaining %” value in the assay with GSPT1 is on record as “B (80%< substrate protein remaining %≤ 100%)”. In assay [1], the inhibition at 0.5 µM lay in the range of 53 to 60% and the inhibition at 2 µM lay in the range of 80 to 100%.

With `CC1(C)CN(Cc2ccc3c(c2)CN(C2CCC(=O)NC2=O)C3=S)CCN1C(c1ccccc1)c1ccccc1` (stereo not shown) [GT-07845, 3-(5-((4-benzhydryl-3,3-dimethylpiperazin-1-yl)methyl)-1-thioxoisoindolin-2-yl)piperidine-2,6-dione], the “CK1α substrate protein remaining %” value at CK1α is “B (80%< substrate protein remaining %≤ 100%)”. Further, the “IKZF 1 substrate protein remaining %” value at IKZF1 was “A (0% ≤ substrate protein remaining % ≤ 80%)”. The “IKZF2 substrate protein remaining %” value on IKZF2 is recorded as “A (0% ≤ substrate protein remaining % ≤ 80%)”. Also, at IKZF3, the “IKZF3 substrate protein remaining %” value was “B (80%< substrate protein remaining %≤ 100%)”. Moreover, on WEE1, the “Wee1 substrate protein remaining %” value was “A (0% ≤ substrate protein remaining % ≤ 80%)”. Further, the “GSPT1 substrate protein remaining %” value in the assay on GSPT1 is listed as “B (80%< substrate protein remaining %≤ 100%)”. Besides, in assay [1], the inhibition at 0.5 µM lay in the range of 40 to 53% and the inhibition at 2 µM was 60 to 80%.

As for `O=C1CCC(N2Cc3cc(CN4CC5CCC4CN5C(c4ccccc4)c4ccccc4)ccc3C2=S)C(=O)N1` (stereo not shown) [GT-07847, 3-(5-((5-benzhydryl-2,5-diazabicyclo[2.2.2]octan-2-yl)methyl)-1-thioxoisoindolin-2-yl)piperidine-2,6-dione], at CK1α, the “CK1α substrate protein remaining %” value was “B (80%< substrate protein remaining %≤ 100%)”. For the same molecule, the “IKZF 1 substrate protein remaining %” value on IKZF1 is “B (80%< substrate protein remaining %≤ 100%)”. For the same molecule, the “IKZF2 substrate protein remaining %” value on IKZF2 is given as “A (0% ≤ substrate protein remaining % ≤ 80%)”. Moreover, the “IKZF3 substrate protein remaining %” value on IKZF3 was “A (0% ≤ substrate protein remaining % ≤ 80%)”. Also, on WEE1, the “Wee1 substrate protein remaining %” value was “A (0% ≤ substrate protein remaining % ≤ 80%)”. The “GSPT1 substrate protein remaining %” value with GSPT1 is “A (0% ≤ substrate protein remaining % ≤ 80%)”. In addition, in assay [1], the inhibition at 0.5 µM lay in the range of 53 to 60% and the inhibition at 2 µM was 80 to 100%.
